Data on 23 substances can be found in US9464128B2, “Site-specific pegylated linear salmon calcitonin analogues” (INSTITUTE OF PHARMACOLOGY AND TOXICOLOGY ACADEMY OF …, priority 2007, dated 2016).

Series [1] has as its system rats. Kind of series: Calcium-reducing activity, subcutaneous injection to abdomens of rats (blood calcium determination). The class given is in vivo, rat. As to the method:
The calcium-reducing activity of sCT(L)s and their PEGylated analogues was determined by administering them to abdomens of rats via subcutaneous injection, according to the method described in the literature (cf. Qian Deming, Shen Genquan, Ke Ruolun; Biological Assay of Calcitonin by Blood Calcium Determination in Rats, CHINESE JOURNAL OF PHARMACEUTICAL ANALYSIS, 1994, 14(3): 30-34).
The activity results as determined were listed as follows, while the reference activity of salmon calcitonin being 4500 IU/mg.

Series [2] deals with rats. Conditions: reference standard; cited from earlier work.
Series [3] concerns female Wistar rats. Put plainly: Long-acting performance study: bone metabolism (alkaline phosphatase, serum calcium, osteocalcin) in castrated rats. Type of series: in vivo, rat. Conditions: for Alkaline phosphatase / Osteocalcin / Serum calcium: n = 10. The method, then: (§1) 60 female Wistar rats, body weight 250-280 g, 16 weeks aged, were randomly divided into six groups: pseudo-castrated contrast group (10 rats); castrated contrast group (10 rats); calcitonin group (10 rats, twice every week, 0.036 μg/kg body weight/time); a low dose group of compound 12 (10 rats, twice every week, 0.216 μg/kg body weight/time); a high dose group of compound (10 rats, twice every week, 1.08 μg/kg body weight/time); and a high dose group of compound (10 rats, once every week, 1.08 μg/kg body weight/time). In each of the groups, the administration was given subcutaneously. During the experiment, the rats in each of the groups freely fed on standard solid forage and drank water. Except for the high dose group of compound 12 with administration once every week, blood samples were respectively taken from the orbits of the rats in other groups at the 6th week of administration, and subjected to the determination of osteocalcin, serum calcium and alkaline phosphatase (Table 2). At the end of the 12th week of administration, in addition to osteocalcin, serum calcium and alkaline phosphatase (Table 3), the bone densities of lumbar vertebrae, tibia and femur in the rats of each of the groups were determined (Table 4).

The conditions of series [4]: kidney homogenate; cited from earlier work.
In series [5] the test system is female Wistar rats. Kind of series: Long-acting performance study: bone density of lumbar vertebrae, femur and tibia in castrated rats. Type of series: in vivo, rat. Particulars: for Bone density, femur / Bone density, lumbar vertebrae / Bone density, tibia: 12th week, n = 10; for influence on bone density of lumbar vertebrae (in words): 12 weeks, high dose group of compound 12, positive contrast sCT group. The method, then:
as §1

The mark [6] stands for this setting: 6th week, 0.036 μg/kg s.c. twice every week.
The mark [7] stands for this setting: 12th week, 0.036 μg/kg s.c. twice every week.
Setting [8] is: 6th week, high dose 1.08 μg/kg s.c. twice every week.
[9] abbreviates: 6th week, low dose 0.216 μg/kg s.c. twice every week.
[10] abbreviates: 12th week, high dose 1.08 μg/kg s.c. twice every week.
Setting [11] is: 12th week, low dose 0.216 μg/kg s.c. twice every week.
Where [12] appears, read: high dose 1.08 μg/kg s.c. once/week.
The mark [13] stands for this setting: high dose 1.08 μg/kg s.c. twice/week.
The mark [14] stands for this setting: low dose 0.216 μg/kg s.c. twice/week.

Take “[Val^1,Ala^7,Gln^11,18,Cys^16,Ala^30,Des-19-22]sCT [Compound 4]”: the “Activity (calcium-reducing activity)” value in the series on rats [1] is on record as 807 IU/mg.

Regarding “[Val^1,Cys^7(mPEG5000-MAL),Des-19,Ala^30]sCT [Compound 13]”, the “Activity (calcium-reducing activity)” value with rats [1] is given as 438 IU/mg.

On to salmon calcitonin [reference compound], for which the “reference activity of salmon calcitonin” value in the series with rats [2] is listed as 4500 IU/mg. Also, in the series on female Wistar rats [3] (setting [6]), the Alkaline phosphatase amounted to 179.8 ± 31.4 u/100 ml, the Osteocalcin amounted to 3.90 ± 1.1 ng/100 ml and the Serum calcium was 9.3 ± 0.2 mg/100 ml. Further, in the series with female Wistar rats [3] (setting [7]), the Alkaline phosphatase is reported as 200.9 ± 40.1 u/100 ml, the Osteocalcin is 3.38 ± 0.17 ng/100 ml and the Serum calcium was found to be 9.3 ± 0.2 mg/100 ml. Also, the metabolic half life in series [4] is recorded as 4.8 min. Besides, in the series on female Wistar rats [5] (0.036 μg/kg s.c. twice/week), the “Bone density, femur” value turned out to be 0.242 ± 0.027 g/cm^2; the “Bone density, lumbar vertebrae” value was 0.181 ± 0.013 g/cm^2; the “Bone density, tibia” value was found to be 0.247 ± 0.127 g/cm^2. In addition, the “influence on bone density of lumbar vertebrae (in words)” value in the series with female Wistar rats [5] is “increased the bone density of lumbar vertebrae”.

For the substance “[Val^1,Ala^7,Cys^19,Ala^30,Des-20-21]sCT [Compound 11]”, the “Activity (calcium-reducing activity)” value in the series on rats [1] was found to be 379 IU/mg.

Take “[Val^1, Cys^7(mPEG5000-MAL),Des-19-22, Ala^30]sCT [Compound 16]”: the “Activity (calcium-reducing activity)” value with rats [1] came to 717 IU/mg.

As to “[Val^1,Cys^7,Gln^11,Ala^30,Des-19-22]sCT [Compound 8]”, the “Activity (calcium-reducing activity)” value in the series with rats [1] is listed as 344 IU/mg.

As for “[Val^1,Cys^7(mPEG5000-MAL), Gln^11,Des-19-22, Ala^30]sCT [Compound 19]”, the “Activity (calcium-reducing activity)” value with rats [1] was determined as 815 IU/mg.

Take “[Val^1,Cys^7,Ala^30,Des-19]sCT [Compound 6]”: in the series on rats [1], the “Activity (calcium-reducing activity)” value stood at 4347 IU/mg.

“[Val^1,Cys^7,Gln^11,18,Ala^30,Des-19-22]sCT [Compound 9]”: in the series with rats [1], the “Activity (calcium-reducing activity)” value was found to be 920 IU/mg.

For the substance “[Val^1,Ala^7,Gln^11,18,Cys^16(mPEG5000-MAL),Des-19-22,Ala^30]sCT [Compound 15]”, the “Activity (calcium-reducing activity)” value in the series with rats [1] stood at 301 IU/mg.

As to “[Val^1,Ala^7,Cys^16,Ala^30,Des-19-22]sCT [Compound 3]”, the “Activity (calcium-reducing activity)” value in the series on rats [1] is 3394 IU/mg.

Consider “[Val^1,Ala^7,Cys^19(mPEG5000-MAL),Des-20-21, Ala^30]sCT [Compound 22]”, for which, in the series with rats [1], the “Activity (calcium-reducing activity)” value was determined as 1707 IU/mg.

As to “[D-Ala^1,Cys^7,D-Ala^30]sCT [Compound 1]”, the “Activity (calcium-reducing activity)” value in the series with rats [1] was found to be 5202 IU/mg.

Take “[Val^1,Cys^7(mPEG5000-MAL),Des-19,Ala^30]sCT [Compound 17]”: the “Activity (calcium-reducing activity)” value in the series on rats [1] was determined as 1921 IU/mg.

Regarding “[Val^1,Cys^7(mPEG5000-MAL), Gln^11,18,Des-19-22,Ala^30]sCT [Compound 20]”, in the series on rats [1], the “Activity (calcium-reducing activity)” value is listed as 1265 IU/mg.

For the substance “[Val^1,Cys^7,Gln^18,Ala^30,Des-19-22]sCT [Compound 7]”, the “Activity (calcium-reducing activity)” value in the series on rats [1] was 233 IU/mg.

Consider “[D-Ala^1,Cys^7(mPEG5000-MAL),D-Ala^30]sCT [Compound 12]”, for which the Alkaline phosphatase came to 180.0 ± 19.4 u/100 ml with female Wistar rats [3] (setting [8]), 187.0 ± 30.4 u/100 ml with female Wistar rats [3] (setting [9]), 188.2 ± 51.2 u/100 ml in the series with female Wistar rats [3] (setting [10]) and 202.4 ± 44.8 u/100 ml with female Wistar rats [3] (setting [11]). In addition, the Osteocalcin with female Wistar rats [3] (setting [8]) was determined as 3.81 ± 0.24 ng/100 ml; in the series on female Wistar rats [3] (setting [9]) it was 3.77 ± 0.25 ng/100 ml; in the series with female Wistar rats [3] (setting [10]), 3.95 ± 0.24 ng/100 ml; in the series with female Wistar rats [3] (setting [11]), 4.01 ± 0.25 ng/100 ml. The Serum calcium is 9.2 ± 0.2 mg/100 ml in the series on female Wistar rats [3] (setting [8]), 9.8 ± 0.3 mg/100 ml with female Wistar rats [3] (setting [9]), 9.4 ± 0.4 mg/100 ml in the series with female Wistar rats [3] (setting [10]) and 9.8 ± 0.3 mg/100 ml in the series on female Wistar rats [3] (setting [11]). Further, in the series with female Wistar rats [3] (high dose group, 6th and 12th weeks of administration), the “influence on bone metabolism of rats compared with sCT group (in words)” value is recorded as “substantially equivalent to the positive contrast sCT group”. The “Bone density, lumbar vertebrae” value is 0.182 ± 0.014 g/cm^2 in the series with female Wistar rats [5] (setting [12]), 0.181 ± 0.018 g/cm^2 in the series with female Wistar rats [5] (setting [13]) and 0.175 ± 0.021 g/cm^2 with female Wistar rats [5] (setting [14]). In addition, the results for the “Bone density, tibia” value in the series on female Wistar rats [5] (setting [12]), in the series on female Wistar rats [5] (setting [13]) and in the series on female Wistar rats [5] (setting [14]) were 0.251 ± 0.015 g/cm^2, 0.256 ± 0.017 g/cm^2 and 0.245 ± 0.014 g/cm^2, respectively. The “Bone density, femur” value in the series with female Wistar rats [5] (setting [13]) is recorded as 0.241 ± 0.017 g/cm^2; in the series on female Wistar rats [5] (setting [14]), 0.240 ± 0.028 g/cm^2. In addition, the “influence on bone density of lumbar vertebrae (in words)” value in the series on female Wistar rats [5] is given as “increased the bone density of lumbar vertebrae”. Also, the “Activity (calcium-reducing activity)” value in the series on rats [1] stood at 1467 IU/mg.

Consider “[Val^1, Ala^7, Cys^16(mPEG5000-MAL), Des-19-22, Ala^30]sCT [Compound 14]”, for which the “Activity (calcium-reducing activity)” value in the series on rats [1] is on record as 987 IU/mg.

In the case of “[Val^1, Ala^7, Cys^19(mPEG5000-MAL),Des-20-22, Ala^30]sCT [Compound 21]”, the “Activity (calcium-reducing activity)” value with rats [1] amounted to 1208 IU/mg.

Consider “[Val^1,Ala^7,Cys^19,Ala^30,Des-20-22]sCT [Compound 10]”, for which the “Activity (calcium-reducing activity)” value in the series with rats [1] is recorded as 892 IU/mg.

Regarding “[Val^1,Cys^7,Des-19-22,Ala^30]sCT [Compound 5]”, the “Activity (calcium-reducing activity)” value in the series on rats [1] was found to be 67 IU/mg.

With “[Val^1,Cys^7(mPEG5000-MAL), Gln^18,Des-19-22, Ala^30]sCT [Compound 18]”, the “Activity (calcium-reducing activity)” value in the series with rats [1] came out at 763 IU/mg.

Turning to “[Val^1,Cys^7,Des-19,Ala^30]sCT [Compound 2]”, in the series on rats [1], the “Activity (calcium-reducing activity)” value is recorded as 1136 IU/mg.
